Patent US4442031A, “Immunopotentiating peptides” (Hoffmann-La Roche Inc., priority 1983, dated 1984)
Where no end group is shown, it is not given here.

Tested on: Listeria monocytogenes EGD
Assay: Growth of Listeria monocytogenes in liver of P388 tumor-bearing mice
Assay type: in vivo
Settings: for Growth of Bacteria (log10 /liver): Tumor-bearing CDF1 mice, i.p., seven times before infection, 3 days after infection, control 7.1
Description: The immunocompetence of tumor-bearing mice is known to be frequently deficient. This is illustrated by the fact that Listeria monocytogenes EGD grew considerably in tumor-bearing mice as compared to normal mice (see Table 9). Male CDF1 mice (6 weeks old) transplanted with P388 leukemia (3×10^5 cells, footpad) were infected with Listeria monocytogenes (2×10^3 cells, iv.) 7 days after the transplant. Three days thereafter the number of the bacteria grown in liver was counted.

Substance	Growth of Bacteria (log10 /liver) (0.4 μg/kg/day)	Growth of Bacteria (log10 /liver) (4 μg/kg/day)	growth of the bacteria in liver (in words) (tumor-bearing mice pretreated daily for seven times before infection)	Growth of Bacteria (log10 /liver) (40 μg/kg/day)
KKEVVE [Compound A, L-Lysyl-L-lysyl-L-glutamyl-L-valyl-L-valyl-L-glutamic acid]	6.0	5.7	growth of the bacteria was suppressed	
thymosin α1 (SDAAVDTSSEITTKDLKEKKEVVEEAEN; ends and bridges not checked; UniProt P01252 2-29, looked up) [peptide isolated from bovine thymus, stimulates maturation, differentiation and function of T cells; U.S. Pat. No. 4,079,127, reference compound]		5.0		5.3
